According to patent US7314625B2 (priority 2000, dated 2008):

system: P. aeruginosa PAK strain; assay type: cell-based

Substance	reduction of adherence to A549 cells
acetyl-KCTSDQDEQFLPKGCSK-NH2 (Ac-KCTSDQDEQFLPKGCSK-NH2; cysteine pairing not given here) [long pilin peptide]	approximately 50%
acetyl-DEQFIPK-NH2 (Ac-DEQFIPK-NH2) [core pilin peptide]	approximately 50%
acetyl-QIDPEFK-NH2 (Ac-QIDPEFK-NH2) [scrambled peptide]	did not interfere with adherence
